Broadly, the AUC(0-inf) is the area under the concentration-time curve extrapolated to infinity. A word on the AUC(0-t): it is the area under the concentration-time curve up to a stated or last time point. Low values mean low exposure, high ones high exposure. As a reminder, the Cmax is the peak of the concentration-time curve. One may read the Tmax as the time from dosing to the highest level.

One series has as its system Rap1. Nature of the series: Rap1 in vitro activity assay (GST-RalGDS-RBD pulldown from lysates). The conditions noted are these: lysates loaded with GDP or GTPγS, compound 30 min. The series is classed as biochemical, human. The procedure:
MCF-7 cells were serum-starved for 16 h and treated with compound for 90 min before cell lysis and Western blot analysis. For insulin-stimulated cells, 100 nM insulin was added 30 min before cell lysis. For EGF-stimulated cells, 100 ng mL^−1 EGF was added 10 min before cell lysis. c Rap1 activity was detected in lysates loaded in vitro with either GDP or GTPγS and treated with NR1 at the indicated concentrations. This was followed by a subsequent pulldown of GST-RalGDS-RBD. Bound Rap1 was detected by Western blot. d Evaluation of NR1 in a LAM patient-derived cell line (TRI102) under replete and serum-starved conditions. For replete conditions, TRI102 cells were treated for 90 min with compound in DMEM + 10% FBS. For serum-starved conditions, TRI102 cells were serum-starved 16 h and then treated for 90 min with compound prior to cell lysis and Western blot analysis. e HEK293 cells co-transfected with the indicated mTOR constructs and HA-GST-S6K1 were starved of amino acids or treated with NR1. To assess mTORC1 activity, an HA IP was performed and Western blots probed for ^T389pS6K1. f Chronic treatment of PC3 cells with NR1 to evaluate the inhibition of mTORC1 (using ^T389pS6K1) versus mTORC2 (using ^S473pAKT). PC3 cells were treated with compound under replete conditions for 24 h prior to cell lysis and Western blot analysis. […]

The nature of series [1]: Pharmacokinetic profile in mouse plasma. It is filed as in vivo. The procedure: (§1) The selective inhibition of mTORC1 activation by NR1 in vitro and in cell-based systems prompted us to evaluate the effect of this compound on mTORC1 activity in vivo. […] In particular, the plasma concentration of NR1 was sustained over 5 µM for 2 h after IP administration of a 30 mg kg^−1 dose (Supplementary Fig. 10). We therefore carried out a pharmacodynamic (PD) study to evaluate the efficacy of NR1 at inhibiting mTORC1 signaling in vivo. In this experiment, mice were starved overnight to achieve a low basal level of mTORC1 activation (pre-dose). After a 16 h fast, the animals were treated with either vehicle or 30 mg kg^−1 NR1 and allowed to re-feed for 2 h before sacrifice and tissue collection. mTORC1 activity was measured by quantification of ^S240/244pS6 by Western blot analysis with a specific antibody. We chose kidney and gastrocnemius muscle as target tissues due to the relevance of mTORC1 in renal cell carcinoma[51] and angiomyolipomas in TSC and LAM[12] and for its important role in the regulation of protein synthesis and muscle mass[52]. The results are summarized in Fig. 6 for skeletal muscle and Supplementary Fig. 11 for kidney.
This study was conducted in accordance with the requirements for the humane care and use of animals set forth in the Animal Welfare Act, the IACUC Guide for the Care and Use of Laboratory Animals, applicable Shanghai and state laws, and regulations and policies of Shanghai ChemPartner Ltd. The animals were not randomized, and the study was not blinded. Male C57BL/6 mice (5 per treatment group, 6–7 weeks old) were fasted of food overnight for 16 hours. IP injection of compound dissolved in MC Tween (0.5% methyl cellulose and 0.1% Tween-80 in water) was given, and then the mice were allowed to feed again ad libitum until sacrifice. The animals were euthanized with CO2. Compound levels in the plasma of treated mice were measured by LC-MS/MS and compared to a standard curve of compound diluted into mouse plasma.
Supplementary Figure 10. Pharmacokinetic profile of NR1 in mouse plasma after a single 30
mg/Kg (body weight) intraperitoneal dose. The dotted line corresponds to 5 µM concentration. Error
bars represent standard deviation of the mean values for n=3 mice.

The target of the next series is Rheb (Homo sapiens, UniProt Q15382). Nature of the series: Affinity selection mass spectrometry (ASMS) Rheb binding. The conditions noted are these: result in words. From the text:
We used both Rheb binding and functional activity to guide the SAR optimization. Due to its high sensitivity and ability to detect weak binding ligands, STD NMR was initially used to measure Rheb binding. In addition to the benzimidazole of 1, we also explored the related indole scaffold, which allowed a wider range of functionalization. […] Therefore, we also used affinity selection mass spectrometry (ASMS) as a semi-quantitative measure of Rheb binding.

Series [2] concerns mTORC1 activity (S240/244pS6) in kidney. Nature of the series: PD study: feeding-induced mTORC1 activation in kidney. The series is classed as in vivo, mouse. The settings on record: mice fasted 16 h, 30 mg kg^−1 IP, re-fed 2 h. The procedure: as §1, with “We chose kidney and gastrocnemius muscle as target tissues due to the relevance of mTORC1 in renal cell carcinoma[51] and angiomyolipomas in TSC and LAM[12] and for its important role in the regulation of protein synthesis and muscle mass[52]. The results are summarized in Fig. 6 for skeletal muscle and Supplementary Fig. 11 for kidney.” left out
This study was conducted in accordance with the requirements for the humane care and use of animals set forth in the Animal Welfare Act, the IACUC Guide for the Care and Use of Laboratory Animals, applicable Shanghai and state laws, and regulations and policies of Shanghai ChemPartner Ltd. The animals were not randomized, and the study was not blinded. […] Compound levels in the plasma of treated mice were measured by LC-MS/MS and compared to a standard curve of compound diluted into mouse plasma. […]

Where [3] appears, read: ip, mouse plasma, single 30 mg/Kg intraperitoneal dose.

Entries after “also recorded” stand apart in the source; their conditions may differ.

Chain of Rheb (Q15382 whole entry): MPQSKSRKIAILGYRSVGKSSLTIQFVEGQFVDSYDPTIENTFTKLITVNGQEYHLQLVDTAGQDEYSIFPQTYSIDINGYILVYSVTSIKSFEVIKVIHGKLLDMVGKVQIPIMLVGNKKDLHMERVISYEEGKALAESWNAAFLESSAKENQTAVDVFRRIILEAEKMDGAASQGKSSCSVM

Consider `CN(C)C(=O)c1ccc(Cn2c(C(=O)O)cc3c(Br)cc(Sc4ccc(Cl)c(Cl)c4)cc32)cc1` [NR1, 4-bromo-6-(3,4-dichlorophenylthio)-1-(4-(dimethylcarbamoyl)benzyl)-1H-indole-2-carboxylic acid], for which, in the series on Rap1, the “effect on activity of Rap1 in vitro” value is on record as “no impact on the activity of Rap1; also recorded: did not affect the activity of Rap1”. In series [1] (setting [3]), the AUC(0-inf) amounted to 23500 ng·h/mL, the AUC(0-t) was 23500 ng·h/mL, the highest level (Cmax) was 7800 ng/mL and the Tmax is 0.25 h. Moreover, the half-life in series [1] (ip, mouse plasma, single 30 mg/Kg intraperitoneal dose, read-out: Terminal t1/2 (converted)) was 2.24 h. In addition, the “plasma concentration sustained for 2 h” value in series [1] (mouse, IP, 30 mg kg^−1) is “over 5 µM”. The “Rheb binding by ASMS” value at Rheb is recorded as “significant affinity”. Also, the “mTORC1 activity (S240/244pS6) in kidney versus vehicle” value in series [2] is reported as “significantly reduced mTORC1 activity”.

The values are drawn from publication PMC5803267, “A small molecule inhibitor of Rheb selectively targets mTORC1 signaling” (Nature Communications, 2018).
